These compounds were tested against T1, human recombinant GABAAR containing α5β3γ2 subunits (benzodiazepine site) (Homo sapiens, UniProt P18507+P31644) (assay: In vitro radioligand binding assay (α5-GABAAR Ki)). Conditions: not given.
T1 construct: expressed in transfected cells; host or cells: mouse L(tk−) cells, dexamethasone-inducible vector pMSGneo
T1 sequence (P31644 32-462): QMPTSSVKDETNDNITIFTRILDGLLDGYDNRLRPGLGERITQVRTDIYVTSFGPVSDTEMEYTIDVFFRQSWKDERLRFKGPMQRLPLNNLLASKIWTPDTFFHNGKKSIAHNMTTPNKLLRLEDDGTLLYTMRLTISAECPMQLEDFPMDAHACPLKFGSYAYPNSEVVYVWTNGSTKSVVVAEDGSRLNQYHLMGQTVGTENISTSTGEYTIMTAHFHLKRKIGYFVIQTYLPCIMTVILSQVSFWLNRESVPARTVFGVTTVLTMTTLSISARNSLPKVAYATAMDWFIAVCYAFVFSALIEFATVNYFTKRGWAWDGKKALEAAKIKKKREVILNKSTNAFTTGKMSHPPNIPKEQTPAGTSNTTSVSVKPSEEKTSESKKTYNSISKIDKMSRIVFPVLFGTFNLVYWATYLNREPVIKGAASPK
T1 sequence (P28472 26-473 partner): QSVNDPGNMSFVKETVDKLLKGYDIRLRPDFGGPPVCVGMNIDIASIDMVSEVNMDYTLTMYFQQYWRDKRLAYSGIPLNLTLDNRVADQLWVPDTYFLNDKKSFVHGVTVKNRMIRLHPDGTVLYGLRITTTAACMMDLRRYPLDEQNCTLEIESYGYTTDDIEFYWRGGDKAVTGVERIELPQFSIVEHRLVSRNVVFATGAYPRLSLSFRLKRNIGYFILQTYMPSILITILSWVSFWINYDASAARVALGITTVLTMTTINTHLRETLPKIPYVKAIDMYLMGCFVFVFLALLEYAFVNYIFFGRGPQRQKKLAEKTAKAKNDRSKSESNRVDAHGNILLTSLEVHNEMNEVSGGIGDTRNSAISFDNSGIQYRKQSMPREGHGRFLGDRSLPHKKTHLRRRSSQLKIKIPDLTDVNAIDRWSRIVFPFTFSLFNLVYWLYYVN
T1 sequence (P18507 40-475): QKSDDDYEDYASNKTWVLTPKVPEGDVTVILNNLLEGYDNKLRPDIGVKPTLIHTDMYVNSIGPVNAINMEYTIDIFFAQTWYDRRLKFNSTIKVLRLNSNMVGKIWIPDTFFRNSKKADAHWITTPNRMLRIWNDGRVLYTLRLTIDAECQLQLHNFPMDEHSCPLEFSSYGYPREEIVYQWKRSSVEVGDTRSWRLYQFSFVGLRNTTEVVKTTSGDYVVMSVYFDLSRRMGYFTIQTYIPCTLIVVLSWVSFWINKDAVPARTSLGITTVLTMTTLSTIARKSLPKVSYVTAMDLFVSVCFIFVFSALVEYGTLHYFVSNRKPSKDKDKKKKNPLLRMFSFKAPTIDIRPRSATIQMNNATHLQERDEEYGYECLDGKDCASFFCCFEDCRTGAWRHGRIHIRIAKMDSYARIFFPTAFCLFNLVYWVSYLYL
Text: Mouse L(tk^−) cells stably expressing human α1β3γ2, α2β3γ2, α3β3γ2, α5β3γ2 GABAARs generated by transfection of the individual subunits in the dexamethasone-inducible expression vector pMSGneo in mouse L(tk^−) cells (Hadingham et al., 1993, Mol. Pharmacol. 43:970-975 and 1993, Mol. Pharmacol. 44:1211-1218) were used for binding and functional assays. For certain compounds, HEK293 cells stable expressing the human α1β3γ2L, α2β3γ2L, α3β3γ2L and α5β3γ2L GABAA receptors were used to evaluate their functional effects in a SyncroPatch electrophysiology assay.
L(tk^−) cells stably expressing human α1β3γ2, α2β3γ2, α3β3γ2, α5β3γ2 GABAARs were maintained in DMEM F12 medium supplemented with 10% Foetal Bovine Serum, 1% Penicillin/Streptomycin and 1 mg/mL Geneticin G418 in an incubator at 37° C. with a humidified atmosphere with 5% CO2.
The affinity (Ki) of compounds for the benzodiazepine site of human recombinant GABAARs was measured by their ability to inhibit the binding of the selective benzodiazepine antagonist [^3H] Ro15-1788 ([^3H] flumazenil).
L(tk^−) cells expressing human recombinant GABAAR containing α1β3γ2, α2β3γ2, α3β3γ2, α5β3γ2 subunits were harvested and membranes were prepared for each receptor combination in phosphate buffer (K2PO4 10 mM, pH 7.0) (Hadingham et al. (1992) Proc. Natl. Acad. Sci. USA; 89 (14): 6378-82). Protein concentration, receptor expression and the Kd of [^3H] Ro15-1788 were determined before Ki values of compounds were evaluated. For Kd evaluation, saturation binding curves were obtained by incubating membrane with various concentrations of [^3H] Ro15-1788 (82.5 Ci/mM), with nonspecific binding measured in the presence of 1 μM TP003.
For Ki evaluation, cell membranes were incubated with 4 nM [^3H] Ro15-1788 along with a range of concentrations of test compound. Nonspecific binding was determined using 1 μM TP003. All incubations were performed for 1 hour at 4° C. in assay buffer. The total assay volume was 0.5 mL, containing 100 μg membrane protein/well α1β3γ2, α2β3γ2, α3β3γ2 and 50 μg membrane protein/well for α53γ2. Incubations were terminated by filtration and washing with ice cold Tris-HCl buffer (50 mM, pH=7.4) over Whatman GF/B filters and the radioactivity of the filters was measured using liquid scintillation counting.
The % inhibition of [^3H] Ro15-1788 binding was plotted as a function of compound concentration and the IC50 calculated. From the IC50, the affinity (Ki) was calculated using the method of Cheng and Prusoff using the Kd values obtained for [^3H] Ro15-1788.
With `COc1cc2c(-c3ccc(NC(=O)c4c(-c5ccccc5)noc4C)c(OC)n3)cn(C)c2cn1` [Example 109, N-(2-Methoxy-6-(5-methoxy-1-methyl-1H-pyrrolo[2,3-c]pyridin-3-yl)pyridin-3-yl)-5-methyl-3-phenylisoxazole-4-carboxamide] the Ki was 47.2 nM.

Same assay, conditions: inhibition of [3H]Ro15-1788 binding, membranes of L(tk−) cells expressing human α5β3γ2; read-out: α5-GABAAR Ki
`COc1nc(-c2cccc([N+](=O)[O-])c2)ccc1NC(=O)c1c(-c2ccccc2)noc1C` [Example 8, N-[2-Methoxy-6-(3-nitrophenyl)-3-pyridyl]-5-methyl-3-phenyl-isoxazole-4-carboxamide] gave a Ki of 104 nM.
Work on `COc1ncc(-c2ccc(NC(=O)c3c(-c4ccccc4)noc3C)c(OC)n2)s1` [Example 10, N-[2-Methoxy-6-(2-methoxythiazol-5-yl)-3-pyridyl]-5-methyl-3-phenyl-isoxazole-4-carboxamide] yielded a Ki of 72.9 nM.
For `COc1nc(-c2cccc(N(C)C)c2)ccc1NC(=O)c1c(-c2ccccc2)noc1C` [Example 16, N-[6-[3-(Dimethylamino)phenyl]-2-methoxy-3-pyridyl]-5-methyl-3-phenyl-isoxazole-4-carboxamide], the Ki was 403 nM.
In the case of `COc1nc(-c2ccncc2C)ccc1NC(=O)c1c(-c2ccccc2)noc1C` [Example 24, N-[2-Methoxy-6-(3-methyl-4-pyridyl)-3-pyridyl]-5-methyl-3-phenyl-isoxazole-4-carboxamide], the Ki is reported as 162 nM.
Work on `COc1nc(-c2c(C)n[nH]c2C)ccc1NC(=O)c1c(-c2ccccc2)noc1C` [Example 25, N-[6-(3,5-Dimethyl-1H-pyrazol-4-yl)-2-methoxy-3-pyridyl]-5-methyl-3-phenyl-isoxazole-4-carboxamide] yielded a Ki of 34.2 nM.
`COc1cc(-c2c(C)n[nH]c2C)cnc1NC(=O)c1c(-c2ccccc2)noc1C` [Example 31, N-[5-(3,5-Dimethyl-1H-pyrazol-4-yl)-3-methoxy-2-pyridyl]-5-methyl-3-phenyl-isoxazole-4-carboxamide] was tested, and the Ki was 69.1 nM.
`COc1nc(-c2cc(OC)c3cn[nH]c3c2)ccc1NC(=O)c1c(-c2ccccc2)noc1C` [Example 32, N-[2-Methoxy-6-(4-methoxy-1H-indazol-6-yl)-3-pyridyl]-5-methyl-3-phenyl-isoxazole-4-carboxamide] showed a Ki of 110 nM.
`COc1nc(-c2ccc3cn[nH]c3c2)ccc1NC(=O)c1c(-c2ccccc2)noc1C` [Example 34, N-[6-(1H-Indazol-6-yl)-2-methoxy-3-pyridyl]-5-methyl-3-phenyl-isoxazole-4-carboxamide] gave a Ki of 115 nM.
In the case of `COc1nc(-c2ccc3c(N)n[nH]c3c2)ccc1NC(=O)c1c(-c2ccccc2)noc1C` [Example 35, N-[6-(3-Amino-1H-indazol-6-yl)-2-methoxy-3-pyridyl]-5-methyl-3-phenyl-isoxazole-4-carboxamide], the Ki is reported as 27.2 nM.
Compound `COc1nc(-c2cnc(Cl)nc2)ccc1NC(=O)c1c(-c2ccccc2)noc1C` [Example 36, N-[6-(2-Chloropyrimidin-5-yl)-2-methoxy-3-pyridyl]-5-methyl-3-phenyl-isoxazole-4-carboxamide] has a Ki of 2 nM.
Work on `COc1nc(-c2nccn3ccnc23)ccc1NC(=O)c1c(-c2ccccc2)noc1C` [Example 38, N-(6-Imidazo[1,2-a]pyrazin-8-yl-2-methoxy-3-pyridyl)-5-methyl-3-phenyl-isoxazole-4-carboxamide] yielded a Ki of 57.6 nM.
For `COc1nc(-c2cnc(N)c(OC)n2)ccc1NC(=O)c1c(-c2ccccc2)noc1C` [Example 39, N-[6-(5-Amino-6-methoxy-pyrazin-2-yl)-2-methoxy-3-pyridyl]-5-methyl-3-phenyl-isoxazole-4-carboxamide], the Ki was 32.3 nM.
`COc1nc(-c2ncn(C)n2)ccc1NC(=O)c1c(-c2ccccc2)noc1C` [Example 51, N-[2-Methoxy-6-(1-methyl-1,2,4-triazol-3-yl)-3-pyridyl]-5-methyl-3-phenyl-isoxazole-4-carboxamide] showed a Ki of 20.5 nM.
`COc1nc(-c2ncccn2)ccc1NC(=O)c1c(-c2ccccc2)noc1C` [Example 63, N-(2-Methoxy-6-pyrimidin-2-yl-3-pyridyl)-5-methyl-3-phenyl-isoxazole-4-carboxamide] showed a Ki of 32.6 nM.
With `COc1nc(-c2cccnn2)ccc1NC(=O)c1c(-c2ccccc2)noc1C` [Example 64, N-(2-Methoxy-6-pyridazin-3-yl-3-pyridyl)-5-methyl-3-phenyl-isoxazole-4-carboxamide] the Ki was 21.9 nM.
`COc1nc(-c2ccncn2)ccc1NC(=O)c1c(-c2ccccc2)noc1C` [Example 65, N-(2-Methoxy-6-pyrimidin-4-yl-3-pyridyl)-5-methyl-3-phenyl-isoxazole-4-carboxamide] gave a Ki of 49 nM.
For `COc1nc(-c2nccs2)ccc1NC(=O)c1c(-c2ccccc2)noc1C` [Example 66, N-(2-Methoxy-6-thiazol-2-yl-3-pyridyl)-5-methyl-3-phenyl-isoxazole-4-carboxamide], the Ki was 236 nM.
In the case of `COc1nc(-c2ccsn2)ccc1NC(=O)c1c(-c2ccccc2)noc1C` [Example 69, N-(6-Isothiazol-3-yl-2-methoxy-3-pyridyl)-5-methyl-3-phenyl-isoxazole-4-carboxamide], the Ki is reported as 232 nM.
`COc1nc(-c2ccccn2)ccc1NC(=O)c1c(-c2ccccc2)noc1C` [Example 73, N-[2-Methoxy-6-(2-pyridyl)-3-pyridyl]-5-methyl-3-phenyl-isoxazole-4-carboxamide] showed a Ki of 154 nM.
`COc1nc(-c2ccc(SC(F)(F)F)nc2)ccc1NC(=O)c1c(-c2ccccc2)noc1C` [Example 76, N-(6-Methoxy-6′-((trifluoromethyl)thio)-[2,3′-bipyridin]-5-yl)-5-methyl-3-phenyl-isoxazole-4-carboxamide] gave a Ki of 297 nM.
`COc1nc(-c2ccc(OC(F)F)nc2)ccc1NC(=O)c1c(-c2ccccc2)noc1C` [Example 88, N-(6′-(Difluoromethoxy)-6-methoxy-[2,3′-bipyridin]-5-yl)-5-methyl-3-phenyl-isoxazole-4-carboxamide] gave a Ki of 26.6 nM.
Compound `COc1nc(-c2cnc(N(C)C)c(Cl)c2)ccc1NC(=O)c1c(-c2ccccc2)noc1C` [Example 98, N-(5′-Chloro-6′-(dimethylamino)-6-methoxy-[2,3′-bipyridin]-5-yl)-5-methyl-3-phenylisoxazole-4-carboxamide] has a Ki of 664 nM.
`COc1nc(-c2nnn(C)c2C)ccc1NC(=O)c1c(-c2ccccc2)noc1C` [Example 101, N-(6-(1,5-Dimethyl-1H-1,2,3-triazol-4-yl)-2-methoxypyridin-3-yl)-5-methyl-3-phenylisoxazole-4-carboxamide] gave a Ki of 45.1 nM.
With `COc1nc(-c2c[nH]c3ncccc23)ccc1NC(=O)c1c(-c2ccccc2)noc1C` [Example 105, N-(2-Methoxy-6-(1H-pyrrolo[2,3-b]pyridin-3-yl)pyridin-3-yl)-5-methyl-3-phenylisoxazole-4-carboxamide] the Ki was 113 nM.
Compound `COc1nc(-c2cnn3cccnc23)ccc1NC(=O)c1c(-c2ccccc2)noc1C` [Example 112, N-(2-Methoxy-6-(pyrazolo[1,5-a]pyrimidin-3-yl)pyridin-3-yl)-5-methyl-3-phenylisoxazole-4-carboxamide] has a Ki of 80.6 nM.
For `COc1nc(-c2cnccn2)ccc1NC(=O)c1c(-c2ccccc2)noc1C` [Example 113, N-(2-Methoxy-6-(pyrazin-2-yl)pyridin-3-yl)-5-methyl-3-phenylisoxazole-4-carboxamide], the Ki was 41.7 nM.
With `COc1nc(-c2cnc3c(c2)CC(=O)N3)ccc1NC(=O)c1c(-c2ccccc2)noc1C` [Example 114, N-(2-Methoxy-6-(2-oxo-2,3-dihydro-1H-pyrrolo[2,3-b]pyridin-5-yl)pyridin-3-yl)-5-methyl-3-phenylisoxazole-4-carboxamide] the Ki was 6.3 nM.
`COc1nc(-c2cn(-c3nccs3)nc2C)ccc1NC(=O)c1c(-c2ccccc2)noc1C` [Example 115, N-(2-Methoxy-6-(3-methyl-1-(thiazol-2-yl)-1H-pyrazol-4-yl)pyridin-3-yl)-5-methyl-3-phenylisoxazole-4-carboxamide] gave a Ki of 99.8 nM.
`COc1nc(-c2c[nH]c(=O)c(F)c2)ccc1NC(=O)c1c(-c2ccccc2)noc1C` [Example 116, N-(5′-Fluoro-6-methoxy-6′-oxo-1′,6′-dihydro-[2,3′-bipyridin]-5-yl)-5-methyl-3-phenylisoxazole-4-carboxamide] showed a Ki of 2.9 nM.
